Among the test systems are A549; HCT-15; EKVX; HCC 2998; MOLT-4; UO-31; SF-268; 786-0; SK-OV-3; RXF 393; SN12C; SNB-78; OVCAR-5; OVCAR-3; M14; MDA-MB-435; T47D; MCF7; NCI/ADR-RES; DU-145.
Holding throughout (assay): NCI-60 cell line screen, 48 h

This note sets out measurements from ChEMBL document CHEMBL1201862, “PubChem BioAssay data set” (2004).

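Tested at 5 concentrations; 48 h exposure; 96-well plates; endpoints linearly interpolated, else capped at highest concentration. GI50: concentration for 50% inhibition of growth.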 Active and inactive are the calls of the source. No stated cut-off is given here; in the data, active = GI50 up to about 1.1 µM and inactive = higher.

Turning to `Cc1ccc(NC(=O)C2C(=O)N(c3ccc(C)c(C)c3)C(=O)C2N=N)cc1C` (stereo not drawn), the GI50 in the assay with A549 was 58.9 µM (inactive); in the assay on HCT-15 it was 74.6 µM; in the assay on EKVX it was > 100 µM (inactive); in the assay on HCC 2998, > 100 µM (inactive); in the assay on MOLT-4 it was > 100 µM (inactive); in the assay with UO-31, > 100 µM (inactive). Further, the GI50 in the assay with SF-268, with 786-0, in the assay with SK-OV-3, in the assay on RXF 393, in the assay with SN12C and in the assay on SNB-78 was > 100 µM (inactive) in each case. In addition, the GI50 in the assay on OVCAR-5, in the assay on OVCAR-3 and in the assay with M14 was > 100 µM (inactive) in each case.

On to `Cc1cccc(C)c1NC(=O)CCCC(=O)C(C#N)c1ccccc1` (stereo not drawn), for which the GI50 in the assay with A549 is > 10 µM (inactive); in the assay on HCT-15 it was more than 10 µM; with EKVX, > 10 µM (inactive); in the assay on HCC 2998, > 10 µM (inactive); in the assay on MOLT-4 it was > 100 µM (inactive); in the assay with UO-31, > 100 µM (inactive). The GI50 in the assay with SF-268 was > 10 µM (inactive); in the assay with 786-0, > 10 µM (inactive); in the assay on SK-OV-3, 91 µM (inactive); in the assay with RXF 393, > 100 µM (inactive); in the assay with SN12C, > 10 µM (inactive); in the assay with SNB-78 it was > 100 µM (inactive). Moreover, the GI50 in the assay on OVCAR-5 was > 10 µM (inactive); in the assay with OVCAR-3 it was > 10 µM (inactive); with M14 it was > 100 µM (inactive).

In the case of `Cc1c(C(=O)/C=C/c2ccccc2O)c(=O)n(-c2ccccc2)n1C`, the GI50 was 34 µM (inactive) with A549; 24.2 µM in the assay with HCT-15; 68.7 µM (inactive) in the assay on EKVX; 16 µM (inactive) with HCC 2998; 19.3 µM (inactive) with MOLT-4; > 10 µM (inactive) in the assay on UO-31. Further, the GI50 is 37.8 µM (inactive) in the assay on SF-268; 20.4 µM (inactive) in the assay with 786-0; 36.1 µM (inactive) with SK-OV-3; 14.2 µM (inactive) in the assay on RXF 393; 21 µM (inactive) in the assay on SN12C; 39.4 µM (inactive) in the assay with SNB-78. The GI50 with OVCAR-5 is 66.8 µM (inactive); in the assay on OVCAR-3 it was 29.2 µM (inactive).

Regarding `Cc1cc(CS(=O)(=O)/C=C/c2ccccc2[N+](=O)[O-])c(CS(=O)(=O)/C=C/c2ccccc2[N+](=O)[O-])cc1C`, the GI50 in the assay on A549 is 57.7 µM (inactive); in the assay with MDA-MB-435, > 41.9 µM (inactive); with HCT-15, more than 33 µM; in the assay with EKVX, 29.9 µM (inactive); in the assay with HCC 2998, > 85.3 µM (inactive); with MOLT-4, 70.1 µM (inactive). For the same molecule, the GI50 is > 82 µM (inactive) in the assay on UO-31; > 100 µM (inactive) in the assay on T47D; 25.4 µM (inactive) in the assay with SF-268; 12.5 µM (inactive) in the assay on 786-0; 24 µM (inactive) in the assay with SK-OV-3; 10.3 µM (inactive) in the assay with RXF 393. Also, the GI50 with SN12C was 52.6 µM (inactive); with MCF7 it was 8.13 µM (inactive); in the assay on SNB-78, 23 µM (inactive); in the assay on OVCAR-5, > 57.1 µM (inactive); in the assay on NCI/ADR-RES, 53.5 µM (inactive); in the assay with OVCAR-3, 49.1 µM (inactive). Further, the GI50 is 56.2 µM (inactive) with DU-145 and > 69.8 µM (inactive) in the assay with M14.

As for `O=C(O)c1c(-c2cccc3ccccc23)sc(-c2cccc3ccccc23)c1C(=O)O`, the GI50 in the assay with A549 was > 100 µM (inactive); in the assay on HCT-15, more than 100 µM; in the assay on EKVX, 90.8 µM (inactive); with HCC 2998 it was > 100 µM (inactive); with MOLT-4, 27.2 µM (inactive); in the assay on UO-31, 88.3 µM (inactive). The GI50 with SF-268, in the assay with 786-0, in the assay with SK-OV-3, in the assay on RXF 393, in the assay on SN12C and in the assay with SNB-78 was > 100 µM (inactive) each time. Also, the GI50 was > 100 µM (inactive) in the assay on OVCAR-5, 63.8 µM (inactive) with OVCAR-3 and > 100 µM (inactive) in the assay with M14.

Turning to `COc1cc2c(c(OC)c1OC)-c1ccc(SC)c(=O)cc1C(CC(=O)Oc1ccc(F)cc1)C2` (stereo not drawn), the GI50 in the assay with A549 is 0.134 µM (active); in the assay with HCT-15, 0.26 µM; with EKVX, 5.04 µM (inactive); with HCC 2998, 0.121 µM (active); in the assay on MOLT-4 it was 0.436 µM (active); with UO-31, 0.817 µM (active). Moreover, the GI50 is 0.622 µM (active) in the assay with SF-268; 0.0625 µM (active) in the assay on 786-0; 0.028 µM (active) in the assay with SK-OV-3; 0.0365 µM (active) in the assay with RXF 393; 0.367 µM (active) with SN12C; 0.142 µM (active) in the assay on SNB-78. The GI50 was 39.1 µM (inactive) with OVCAR-5, 0.134 µM (active) with OVCAR-3 and 0.172 µM (active) in the assay on M14.

As for `COC(=O)c1ccccc1NCc1cc(O)ccc1O`, the GI50 with A549 was 32.7 µM (inactive); in the assay on MDA-MB-435 it was 17.8 µM (inactive); in the assay on HCT-15, 18.8 µM; in the assay with EKVX, 22 µM (inactive); in the assay on HCC 2998, 23.4 µM (inactive); in the assay on MOLT-4 it was 16.1 µM (inactive). Moreover, the GI50 with UO-31 is 17.5 µM (inactive); in the assay on T47D it was 15.9 µM (inactive); with SF-268, 27.9 µM (inactive); in the assay with 786-0, 17.7 µM (inactive); in the assay on SK-OV-3, > 100 µM (inactive); in the assay on RXF 393, 15.9 µM (inactive). In addition, the GI50 is 18.6 µM (inactive) in the assay with SN12C; 17.6 µM (inactive) with MCF7; 20.3 µM (inactive) in the assay with SNB-78; 29.4 µM (inactive) in the assay with OVCAR-5; 19.2 µM (inactive) in the assay with NCI/ADR-RES; 16.7 µM (inactive) in the assay on OVCAR-3. The results for the GI50 in the assay on DU-145 and with M14 were 50.8 µM (inactive) and 12.5 µM (inactive), respectively.

Take `CC1=C(c2cc(C(=O)Nc3ccc(Cl)c(Cl)c3)nc(N)n2)Sc2ccccc2N1`: the GI50 is > 100 µM (inactive) with A549; more than 100 µM in the assay with HCT-15; 98.6 µM (inactive) in the assay with EKVX; > 100 µM (inactive) in the assay with HCC 2998; > 100 µM (inactive) in the assay on MOLT-4; > 100 µM (inactive) in the assay with UO-31. Further, the GI50 in the assay with SF-268 is > 100 µM (inactive); in the assay with 786-0, > 100 µM (inactive); with SK-OV-3, > 100 µM (inactive); in the assay on RXF 393, 89.7 µM (inactive); in the assay with SN12C, > 100 µM (inactive); in the assay with SNB-78, > 100 µM (inactive). The GI50 in the assay on OVCAR-5, with OVCAR-3 and in the assay with M14 was > 100 µM (inactive) in each case.

With `CCc1cc(CCC(=O)Nc2c(C)cccc2C)n[nH]1`, the GI50 in the assay on A549 is > 100 µM (inactive); with HCT-15, more than 100 µM; with EKVX, > 100 µM (inactive); in the assay with HCC 2998 it was > 100 µM (inactive); in the assay with MOLT-4, > 100 µM (inactive); in the assay with UO-31 it was > 100 µM (inactive). The GI50 in the assay with SF-268, in the assay on 786-0, in the assay with SK-OV-3, in the assay with RXF 393, in the assay with SN12C and in the assay with SNB-78 was > 100 µM (inactive) in each case. The GI50 with OVCAR-5, in the assay with OVCAR-3 and in the assay on M14 was > 100 µM (inactive) in each case.

Consider `CC1=C(O)C(=O)C2C(=O)C1C1Cc3ccccc3C21` (stereo not drawn), for which the GI50 with A549 was > 100 µM (inactive); with HCT-15, more than 100 µM; in the assay with EKVX, > 100 µM (inactive); in the assay with HCC 2998, > 100 µM (inactive); in the assay with MOLT-4, > 100 µM (inactive); in the assay with UO-31, > 100 µM (inactive). Besides, the GI50 in the assay on SF-268, with 786-0, in the assay with SK-OV-3, with RXF 393, in the assay with SNB-78 and with OVCAR-5 was > 100 µM (inactive) in each case. Moreover, the GI50 in the assay on OVCAR-3 and in the assay with M14 was > 100 µM (inactive) in each case.

For `O=C1CC(c2ccccc2)NCN1` (stereo not drawn), the GI50 in the assay with A549 was > 100 µM (inactive); with HCT-15 it was more than 100 µM; in the assay on EKVX it was > 100 µM (inactive); with HCC 2998, > 100 µM (inactive); in the assay with MOLT-4, > 100 µM (inactive); in the assay on UO-31, > 100 µM (inactive). For the same molecule, the GI50 in the assay with SF-268, with 786-0, in the assay on SK-OV-3, in the assay on RXF 393, in the assay with SN12C and in the assay on SNB-78 was > 100 µM (inactive) throughout. The GI50 in the assay on OVCAR-5, in the assay with OVCAR-3 and in the assay on M14 was > 100 µM (inactive) in each case.

Turning to `COc1c(O)c2c3c(cc(C)cc3c1C(C)C)OC2`, the GI50 with A549 was > 100 µM (inactive); with HCT-15 it was more than 100 µM; with EKVX, > 100 µM (inactive); in the assay with HCC 2998, > 100 µM (inactive); with MOLT-4, > 100 µM (inactive); with UO-31 it was > 100 µM (inactive). Also, the GI50 with SF-268, in the assay on 786-0, with SK-OV-3, in the assay with RXF 393, in the assay with SN12C and with SNB-78 was > 100 µM (inactive) throughout. The GI50 in the assay on OVCAR-5, in the assay with OVCAR-3 and in the assay with M14 was > 100 µM (inactive) in each case.

For the molecule `O=C(CSc1nnc[nH]1)C[P+](c1ccccc1)(c1ccccc1)c1ccccc1`, the GI50 in the assay with A549 is > 100 µM (inactive); with HCT-15, more than 100 µM; in the assay with EKVX, > 100 µM (inactive); with HCC 2998, > 100 µM (inactive); in the assay on MOLT-4, 40.2 µM (inactive); in the assay on UO-31, > 100 µM (inactive). Besides, the GI50 was > 100 µM (inactive) with SF-268; > 100 µM (inactive) in the assay with 786-0; > 100 µM (inactive) in the assay with SK-OV-3; 61.4 µM (inactive) in the assay on RXF 393; > 100 µM (inactive) with SN12C; > 100 µM (inactive) in the assay on SNB-78. Besides, the GI50 is > 100 µM (inactive) in the assay with OVCAR-5, 74.8 µM (inactive) in the assay with OVCAR-3 and > 100 µM (inactive) in the assay on M14.
